Entries after “also recorded” stand apart in the source; their conditions may differ. Counter-ions that a name gives are not always drawn.
Columns and labels:
[1] = tested on: T1, human A1AR; assay: A1AR cAMP assay, HEK293 A1AR Nomad cell line (Innoprot), agonist mode; assay type: cell-based; settings: compounds at 10 µM, normalized to 10 µM NECA (100%) and vehicle DMSO (0%)
T1 construct: host or cells: HEK293 A1AR Nomad cell line
Text: For screening of the initial compounds predicted by machine learning models to activate A1AR receptor, we used the HEK293 A1AR Nomad cell line, which consists of HEK293 cells stably expressing human A1AR with no tag. This cell line has been designed to assay compounds or analyze their capability to modulate the A1AR. When the agonist binds to A1AR in this engineered cell line a Go protein is activated, which in turn, triggers a cellular response mediated by cAMP inhibition. This cellular response can be measured by quantifying the increase in fluorescence intensity and its cellular distribution. An agonist assay was performed for 29 compounds (predicted to be active by the machine learning model) in the human recombinant HEK293 A1AR Nomad cell line using a fluorescence-based assay. An agonist effect of the compounds was measured by quantifying the changes in the fluorescence emission cAMP Nomad biosensor, this elevation of fluorescence was analyzed using a plate reader Synergy 2 (Biotek, Winooski, VT). The error bars represent the standard deviation among the three replicate wells. The 29 compounds were tested at 10 μM using nonselective AR agonist adenosine-5′-N-ethyluronamide (NECA) at 10 μM as a reference.

[2] = tested on: T1, human A1AR; assay: Radioligand displacement binding, [3H]DPCPX, HEK293 membranes; settings: mean ± standard error, three independent experiments
Method: (§1) HEK293 cells stably expressing the human A1AR, A2AAR, A3AR were cultured in DMEM supplemented with 10% fetal bovine serum, 100 Units/ml penicillin, 100 µg/ml streptomycin, and 2 µmol/ml glutamine. To prepare cell membranes, cells were detached from culture plates by scraping into cold PBS and centrifuged at 250 g for 5 min. The pellets were resuspended in ice-cold PBS buffer (pH 7.4) and then homogenized. After homogenization and suspension, cells were centrifuged at 1,000 g for 10 min, and the pellet was discarded. The suspension was then re-centrifuged at 20,000 g for 60 min at 4°C. […] The aliquots of membrane preparations were stored at −80°C until the binding experiments. For displacement binding assays, membrane preparations (20 µg proteins/tube) were incubated at 25°C for 60 min with a final concentration of [^3H]DPCPX (0.5 nM), [^3H]ZM241385 (1.0 nM), […] [^125I]I-AB-MECA (0.1 nM) for A1AR, A2AAR, A3AR, respectively, in a mixture containing 50 µl of increasing concentrations of a test ligand in a total assay volume of 200 µl of 50 mM Tris HCl, pH 7.4, containing 10 mM MgCl2. Nonspecific binding was determined using 100 µM of XAC. The reaction was terminated by filtration with GF/B filters using a Brandel (Gaithersburg, MD) 24-channel harvester. Filters were placed in scintillation vials containing 5 ml of Hydrofluor scintillation buffer (National Diagnostics, Atlanta, GA) and counted using a Tricarb 2810TR liquid scintillation counter (PerkinElmer, Waltham, MA).

[3] = target: T2, human A2AAR (Homo sapiens, UniProt P29274); assay: Radioligand displacement binding, [3H]ZM241385, HEK293 membranes; settings: mean ± standard error, three independent experiments
T2 construct: expressed in transfected cells; host or cells: HEK293
T2 sequence (P29274 whole entry): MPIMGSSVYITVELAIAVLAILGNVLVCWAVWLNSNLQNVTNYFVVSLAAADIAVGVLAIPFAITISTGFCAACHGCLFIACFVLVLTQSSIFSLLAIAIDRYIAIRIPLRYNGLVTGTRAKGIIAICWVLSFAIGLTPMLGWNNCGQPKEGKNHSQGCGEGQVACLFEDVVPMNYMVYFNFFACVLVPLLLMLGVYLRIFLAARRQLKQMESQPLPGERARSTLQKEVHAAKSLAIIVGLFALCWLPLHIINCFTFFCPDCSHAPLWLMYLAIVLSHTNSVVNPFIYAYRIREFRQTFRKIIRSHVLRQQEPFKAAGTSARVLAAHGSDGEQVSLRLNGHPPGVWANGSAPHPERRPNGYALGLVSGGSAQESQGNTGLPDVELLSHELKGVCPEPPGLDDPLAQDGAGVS
Method: as §1

[4] = target: T3, human A3AR (Homo sapiens, UniProt P0DMS8); assay: Radioligand displacement binding, [125I]I-AB-MECA, HEK293 membranes
T3 sequence (P0DMS8 1-318): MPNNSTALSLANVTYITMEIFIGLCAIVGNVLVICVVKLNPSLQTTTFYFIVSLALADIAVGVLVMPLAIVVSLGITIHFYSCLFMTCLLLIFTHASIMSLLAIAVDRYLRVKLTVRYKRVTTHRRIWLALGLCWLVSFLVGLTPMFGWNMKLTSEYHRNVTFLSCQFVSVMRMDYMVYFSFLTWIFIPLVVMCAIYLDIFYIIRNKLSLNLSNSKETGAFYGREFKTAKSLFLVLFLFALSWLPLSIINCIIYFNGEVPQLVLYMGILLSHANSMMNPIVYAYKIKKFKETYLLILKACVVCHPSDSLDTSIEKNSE
Method: as §1

[5] = tested on: T4, A1AR; assay: cAMP assay in AR-expressing HEK293 cells (ALPHAScreen), A1AR; assay type: cell-based, human; settings: A1AR-expressing HEK cells; cAMP inhibition, Cl-ENBA reference full agonist
T4 construct: expressed in transfected cells; host or cells: HEK293
Method: (§2) HEK293 cells were grown in 96-well plates in DMEM supplemented with 10% fetal bovine serum, 100 Units/ml penicillin, 100 µg/ml streptomycin, and 2 µmol/ml glutamine. […] For A1AR and A3AR, after incubation with agonists for 20 min, forskolin (10 µM) was added and the mixture incubated for an additional 15 min. The reaction was terminated upon removal of the supernatant and addition of 100 µl Tween-20 (0.3%). Intracellular cAMP levels were measured with an ALPHAScreen cAMP assay kit as instructed by the manufacturer (PerkinElmer).

[6] = target: T2, human A2AAR; assay: cAMP assay in AR-expressing HEK293 cells (ALPHAScreen), A2AAR; assay type: cell-based
Method: as §2

[7] = target: T3, human A3AR; assay: cAMP assay in AR-expressing HEK293 cells (ALPHAScreen), A3AR; assay type: cell-based; settings: for cAMP, A3AR agonist activity: A3AR-expressing cells, MRS5698 reference full agonist
Method: as §2

[8] = tested on: T5, A1AR; assay: A1AR-bla U2OS agonist screen (beta-arrestin/TEV, beta-lactamase reporter; Thermo Fisher); assay type: cell-based
T5 construct: host or cells: A1AR-bla U2OS
Method: A1AR-bla U2OS cells are thawed and resuspended in Assay Media (Freestyle media) to a concentration of 312,500 cells/ml. 32 μl of cell suspension (10,000 cells) was added to each well of a 384-well TC-Treated assay plate. Cells in Assay Media were incubated for 16–24 h in the plate at 37°C/5% CO2 in a humidified incubator. 4 μl aliquots of a 10X serial dilution of NECA (control agonist starting concentration, 500 nM) or compounds were added to appropriate wells of the plate. 4 μl of Assay Media was added to all wells to bring the final assay volume to 40 μl. The plate was incubated for 5 h at 37°C/5% CO2 in a humidified incubator. 8 μl of 1 μM substrate + Solution D Loading Solution was added to each well and the plate was incubated for 2 h at room temperature. The plate was read on a fluorescence plate reader.
This parental cell line stably expresses a beta‐arrestin/TEV protease fusion protein and the beta‐lactamase reporter gene under the control of a UAS response element. […] We also used a secondary assay PathHunter® β-Arrestin assay, which monitors the activation of A1AR in a homogenous, non-imaging assay format using a technology developed by DiscoverX called Enzyme Fragment Complementation (EFC) with β-galactosidase (β-Gal) as the functional reporter.

SMILES | normalized activity with respect to the positive control [1] [%] | Inhibition of specific binding, % inhibition at 100 µM, A1 ([3H]DPCPX) [2] [%] | Ki, A2A ([3H]ZM241385) [3] | Ki ([3]; read-out: Ki, A2A ([3H]ZM241385)) [µM] | Kd ([4]; as worded in the Discussion) [µM] | Ki, A3 ([125I]I-AB-MECA) ([4]; mean ± standard error, three independent experiments) | Ki ([4]; mean ± standard error, three independent experiments, read-out: Ki, A3 ([125I]I-AB-MECA)) [µM] | cAMP, A1AR agonist activity [5] | cAMP, A2AAR activity (stimulation of cAMP) ([6]; A2AAR-expressing HEK293 cells) | Emax ([6]; A2AAR-expressing HEK293 cells, reference full agonist = 100% stimulation) [%] | EC50 ([6]; HEK293 cells expressing human A2AAR, absence of antagonist, read-out: EC50, stimulation of cAMP, A2AAR) [µM] | agonist activity at the human A3AR at 100 µM ([7]; 100 µM) | cAMP, A3AR agonist activity [7] | cAMP, A3AR agonist activity ([7]; listed as paroxetine) | activation of A1AR, A1AR-bla U2OS cells [8]
Cc1ccc(S(=O)(=O)/C=C/C#N)cc1 [BAY 11-7082, (E)-3-(4-methylphenylsulfonyl)-2-propenenitrile] | 95.74 | – | – | – | – | – | – | – | – | – | – | – | – | – | –
Fc1ccc([C@@H]2CCNC[C@H]2COc2ccc3c(c2)OCO3)cc1 [Paroxetine, Paroxetine Hydrochloride] | 68.0 | 9.1 ± 3.9 | in the µM range | 40.4 ± 9.8 | 14.5 ± 9.7 | in the µM range | 14.5 ± 9.7 | Not active | weak activation; also recorded: Active | 69 | 14 | did not show any agonist activity | no activation; also recorded: Not active | Lack of agonist effect | no activation
CCN(CC)CCOc1ccc2c(c1)C(=O)c1cc(OCCN(CC)CC)ccc1-2 [Tilorone Hydrochloride] | 55.9 | – | – | – | – | – | – | – | – | – | – | – | – | – | –
